Experimental data published in patent publication US20020137929A1, “1 - (3-heterocyclylphenyl) isothiourea, -isourea, -guanidine and -amidine herbicidal agents” (Intellectual Property Department, BASF Aktiengesellschaft, priority 1998, published 2002).

Key:
[1] = tested on: IPOHE (Morningglory, Ivyleaf); assay: Preemergence herbicidal evaluation; assay type: in vivo, Ipomoea hederacea; conditions: rated 4-5 weeks after treatment
Summary of the method: (§1)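 Visual 0-9 rating vs control (stand, vigor, malformation, size, chlorosis, overall appearance), scored 4-5 wk after spraying. Seeded soil cups were treated preemergence with compound in aqueous acetone, ~0.0156-0.500 kg/ha equivalent.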

SETVI (Foxtail, Green) [2] = assay: Preemergence herbicidal evaluation; assay type: in vivo, Setaria viridis; conditions: rated 4-5 weeks after treatment
Summary of the method: as §1

ABUTH (Velvetleaf) = assay: Preemergence herbicidal evaluation; assay type: in vivo, Abutilon theophrasti; conditions: rated 4-5 weeks after treatment
Summary of the method: as §1

[3] = tested on: ECHORC (Watergrass (Calif.)); assay: Postemergence weed control under flooded paddy conditions; assay type: in vivo, Echinochloa oryzoides; conditions: postemergence weeds, rated 3 to 4 weeks after treatment
Summary of the method: (§2)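 Herbicidal effect is judged by eye on a 0–9 scale versus control, 3–4 weeks after dosing. Dosing is into flood water kept 1.5–3 cm over the soil, at about 0.0313–0.500 kg/ha in aqueous/acetone 50/50 v/v, on 3–5 cm weeds and 1.5–2.5-leaf rice seedlings.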

SETVI (Foxtail, Green) [4] = assay: Postemergence herbicidal evaluation; assay type: in vivo, Setaria viridis
Summary of the method: (§3)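 Herbicidal effect was judged by eye on a 0–9 scale covering stand, vigor, deformity, size and chlorosis, compared with controls, four to five weeks after seedlings about two weeks old were sprayed (40 psi, ~0.0156–0.500 kg/ha).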

ZEAMX (Corn, Field) = assay: Preemergence herbicidal evaluation; assay type: in vivo, Zea mays; conditions: rated 4-5 weeks after treatment
Summary of the method: as §1

ECHCG (Barnyardgrass) = assay: Preemergence herbicidal evaluation; assay type: in vivo, Echinochloa crus-galli; conditions: rated 4-5 weeks after treatment
Summary of the method: as §1

MOOVA (Monochoria) = assay: Preemergence weed control under flooded paddy conditions; assay type: in vivo, Monochoria vaginalis; conditions: rated 3-4 weeks after treatment
Summary of the method: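 Ratings on a 0-9 visual scale cover stand, vigor, malformation, size, chlorosis and overall appearance relative to a control, taken three to four weeks post-treatment. Application was into flood water over freshly sown silt loam at roughly 0.0313 to 0.500 kg/ha.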

[5] = tested on: TRZAWR (Wheat, Winter, cv Riband); assay: Postemergence herbicidal evaluation; assay type: in vivo, Triticum aestivum
Summary of the method: as §3

[6] = tested on: ECHORC (Watergrass (Calif.)); assay: Preemergence weed control under flooded paddy conditions; assay type: in vivo, Echinochloa oryzoides; conditions: rated 3-4 weeks after treatment
Summary of the method: (§4)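 Visual injury scored 0-9 against control three to four weeks post-treatment, greenhouse-grown. Application: acetone/water (50/50) solutions dosed directly into flood water (1.5-3 cm over silt loam, planted top 0.5 cm), roughly 0.0313 to 0.500 kg/ha active ingredient.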

[7] = tested on: IPOHE (Morningglory, Ivyleaf); assay: Postemergence herbicidal evaluation; assay type: in vivo, Ipomoea hederacea
Summary of the method: as §3

[8] = tested on: SAGPY (Arrowhead (Pygmaea)); assay: Postemergence weed control under flooded paddy conditions; assay type: in vivo, Sagittaria pygmaea; conditions: postemergence weeds, rated 3 to 4 weeks after treatment
Summary of the method: as §2

CYPIR (Rice Flatsedge) = assay: Preemergence weed control under flooded paddy conditions; assay type: in vivo, Cyperus iria; conditions: rated 3-4 weeks after treatment
Summary of the method: as §4

GALAP (Galium) = assay: Postemergence herbicidal evaluation; assay type: in vivo, Galium aparine
Summary of the method: as §3

For `C=CCN1C(=O)C(CC(=O)O)SC1=Nc1cc(-n2c(=O)cc(C(F)(F)F)n(C)c2=O)c(F)cc1Cl` (stereo not drawn) [Compound 62, 3-Allyl-2-{{2-chloro-5-[3,6-dihydro-3-methyl-2,6-dioxo-4-(trifluoromethyl)-1(2H)-pyrimidinyl]-4-fluorophenyl}imino}-4-oxo-5-thiazolidineacetic acid], the “Preemergence herbicidal rating IPOHE” value ([1]; rate 0.0156 kg/ha) was 0.0, the “Preemergence herbicidal rating IPOHE” value ([1]; rate 0.0313 kg/ha) was 3.0 and the “Preemergence herbicidal rating IPOHE” value ([1]; rate 0.0625 kg/ha) was 5.0. For the same molecule, the “Preemergence herbicidal rating IPOHE” value ([1]; rate 0.1250 kg/ha) was 7.0, the “Preemergence herbicidal rating IPOHE” value ([1]; rate 0.2500 kg/ha) was 9.0 and the “Preemergence herbicidal rating SETVI” value (SETVI (Foxtail, Green) [2]; rate 0.0156 kg/ha) was 0.0. For the same molecule, the “Preemergence herbicidal rating SETVI” value (SETVI (Foxtail, Green) [2]; rate 0.0313 kg/ha) was 0.0, the “Preemergence herbicidal rating SETVI” value (SETVI (Foxtail, Green) [2]; rate 0.0625 kg/ha) was 6.0 and the “Preemergence herbicidal rating SETVI” value (SETVI (Foxtail, Green) [2]; rate 0.1250 kg/ha) was 9.0. The “Preemergence herbicidal rating SETVI” value (SETVI (Foxtail, Green) [2]; rate 0.2500 kg/ha) was 9.0, the “Preemergence herbicidal rating ABUTH” value (ABUTH (Velvetleaf); rate 0.0156 kg/ha) was 4.0 and the “Preemergence herbicidal rating ABUTH” value (ABUTH (Velvetleaf); rate 0.0313 kg/ha) was 7.0. The “Preemergence herbicidal rating ABUTH” value (ABUTH (Velvetleaf); rate 0.0625 kg/ha) was 9.0, the “Preemergence herbicidal rating ABUTH” value (ABUTH (Velvetleaf); rate 0.1250 kg/ha) was 9.0 and the “Preemergence herbicidal rating ABUTH” value (ABUTH (Velvetleaf); rate 0.2500 kg/ha) was 9.0. The “Herbicidal rating ECHORC” value ([3]; Rate 0.0313 kg/ha) was 0.0, the “Herbicidal rating ECHORC” value ([3]; Rate 0.0625 kg/ha) was 0.0 and the “Herbicidal rating ECHORC” value ([3]; Rate 0.1250 kg/ha) was 2.0. For the same molecule, the “Herbicidal rating ECHORC” value ([3]; Rate 0.2500 kg/ha) was 5.0, the “Postemergence herbicidal rating SETVI” value (SETVI (Foxtail, Green) [4]; Rate 0.0158 kg/ha) was 9.0 and the “Postemergence herbicidal rating SETVI” value (SETVI (Foxtail, Green) [4]; Rate 0.0315 kg/ha) was 9.0. For the same molecule, the “Postemergence herbicidal rating SETVI” value (SETVI (Foxtail, Green) [4]; Rate 0.0630 kg/ha) was 8.0, the “Preemergence herbicidal rating ZEAMX” value (ZEAMX (Corn, Field); rate 0.0156 kg/ha) was 0.0 and the “Preemergence herbicidal rating ZEAMX” value (ZEAMX (Corn, Field); rate 0.0313 kg/ha) was 1.0. The “Preemergence herbicidal rating ZEAMX” value (ZEAMX (Corn, Field); rate 0.0625 kg/ha) was 1.0, the “Preemergence herbicidal rating ZEAMX” value (ZEAMX (Corn, Field); rate 0.1250 kg/ha) was 3.0 and the “Preemergence herbicidal rating ZEAMX” value (ZEAMX (Corn, Field); rate 0.2500 kg/ha) was 7.0. The “Preemergence herbicidal rating ECHCG” value (ECHCG (Barnyardgrass); rate 0.0156 kg/ha) was 0.0, the “Preemergence herbicidal rating ECHCG” value (ECHCG (Barnyardgrass); rate 0.0313 kg/ha) was 0.0 and the “Preemergence herbicidal rating ECHCG” value (ECHCG (Barnyardgrass); rate 0.0625 kg/ha) was 1.0. The “Preemergence herbicidal rating ECHCG” value (ECHCG (Barnyardgrass); rate 0.1250 kg/ha) was 3.0, the “Preemergence herbicidal rating ECHCG” value (ECHCG (Barnyardgrass); rate 0.2500 kg/ha) was 7.0 and the “MOOVA herbicidal effect rating” value (MOOVA (Monochoria); 0.0313 kg/ha) was 4.0. The “MOOVA herbicidal effect rating” value (MOOVA (Monochoria); 0.0625 kg/ha) was 9.0, the “MOOVA herbicidal effect rating” value (MOOVA (Monochoria); 0.1250 kg/ha) was 9.0 and the “MOOVA herbicidal effect rating” value (MOOVA (Monochoria); 0.2500 kg/ha) was 9.0. The “Postemergence herbicidal rating TRZAWR” value ([5]; Rate 0.0158 kg/ha) was 5.0, the “Postemergence herbicidal rating TRZAWR” value ([5]; Rate 0.0315 kg/ha) was 5.5 and the “Postemergence herbicidal rating TRZAWR” value ([5]; Rate 0.0630 kg/ha) was 7.0. For the same molecule, the “ECHORC herbicidal effect rating” value ([6]; 0.0313 kg/ha) was 0.0, the “ECHORC herbicidal effect rating” value ([6]; 0.0625 kg/ha) was 0.0 and the “ECHORC herbicidal effect rating” value ([6]; 0.1250 kg/ha) was 2.0. The “ECHORC herbicidal effect rating” value ([6]; 0.2500 kg/ha) was 5.0, the “Postemergence herbicidal rating IPOHE” value ([7]; Rate 0.0158 kg/ha) was 9.0 and the “Postemergence herbicidal rating IPOHE” value ([7]; Rate 0.0315 kg/ha) was 9.0. The “Postemergence herbicidal rating IPOHE” value ([7]; Rate 0.0630 kg/ha) was 9.0, the “Herbicidal rating SAGPY” value ([8]; Rate 0.0313 kg/ha) was 0.0 and the “Herbicidal rating SAGPY” value ([8]; Rate 0.0625 kg/ha) was 0.0. The “Herbicidal rating SAGPY” value ([8]; Rate 0.1250 kg/ha) was 3.0, the “Herbicidal rating SAGPY” value ([8]; Rate 0.2500 kg/ha) was 6.0 and the “CYPIR herbicidal effect rating” value (CYPIR (Rice Flatsedge); 0.0313 kg/ha) was 0.0. For the same molecule, the “CYPIR herbicidal effect rating” value (CYPIR (Rice Flatsedge); 0.0625 kg/ha) was 2.0, the “CYPIR herbicidal effect rating” value (CYPIR (Rice Flatsedge); 0.1250 kg/ha) was 9.0 and the “CYPIR herbicidal effect rating” value (CYPIR (Rice Flatsedge); 0.2500 kg/ha) was 9.0. The “Postemergence herbicidal rating GALAP” value (GALAP (Galium); Rate 0.0158 kg/ha) was 1.0, the “Postemergence herbicidal rating GALAP” value (GALAP (Galium); Rate 0.0315 kg/ha) was 5.0 and the “Postemergence herbicidal rating GALAP” value (GALAP (Galium); Rate 0.0630 kg/ha) was 5.0.
